Our source for the activation values is patent publication US9452170B2, “Compounds and methods for inducing chondrogenesis” (The California Institute for Biomedical Research, priority 2013, dated 2016).

Where only a bound is given, the exact number is not on record here.

This assay relates to Human MSCs. Nature of the assay: Human chondrocyte differentiation assay (immunostaining for type II collagen, Sox9 and COMP). Type of assay: cell-based. The settings on record: 168 h, compound 1 μM, 7 days, vs DMSO vehicle, read-out: Biological Activity (increase in staining intensity compared to vehicle control). The procedure: Human MSCs (50,000) were plated into each well of a 96-well plate and cultured overnight. Compounds (in DMSO solution) were added to the cells at a final concentration of 1 μM, and the cells were cultured for 7 days at 5% CO2, 37° C. The cells were fixed with 10% formalin solution at room temperature for 10 min, and immunostained using antibodies specific for type II collagen (Abcam), Sox9 (Santa Cruz) and cartilage oligomeric matrix protein (COMP, Santa Cruz), and fluorescently labeled secondary antibodies (Li-Cor). The total intensity of the staining was measured using Oddyssey CLx imaging system (Li-Cor). Vehicle (DMSO) was used as control to determine the basal level of chondrocyte differentiation. […] Representative data are shown in Table 1 [A: >50% increase in staining intensity compared to vehicle control; B: 30-50% increase in staining intensity compared to vehicle control].
For the molecule `N#Cc1ccc(Cl)c(NC(=O)c2ccccc2C(=O)O)c1` [Compound 1], the activation at 1 µM lay in the range of 30 to 50%. As for `N#Cc1cc(NC(=O)c2ccccc2C(=O)O)ccc1Cl` [Compound 2], the figure is 30 to 50%; as for `N#Cc1cc(Cl)cc(NC(=O)c2ccccc2C(=O)O)c1` [Compound 3], > 50%; as for `CC(=O)c1ccc(Cl)c(NC(=O)c2ccccc2C(=O)O)c1` [Compound 4], > 50%. In the case of `CC(=O)c1cc(NC(=O)c2ccccc2C(=O)O)ccc1Cl` [Compound 5] it was 30 to 50%. As to `COc1ccc(C#N)cc1NC(=O)c1ccccc1C(=O)O` [Compound 6], the activation at 1 µM was > 50%. In the case of `COc1ccc(NC(=O)c2ccccc2C(=O)O)cc1C#N` [Compound 7] it was > 50%. As for `N#Cc1cc(Cl)ccc1NC(=O)c1ccccc1C(=O)O` [Compound 8], the figure is 30 to 50%. For `N#Cc1cc(NC(=O)c2ccccc2C(=O)O)cc(C(F)(F)F)c1` [Compound 9], the activation at 1 µM is > 50%. In the case of `O=C(O)c1ccccc1C(=O)Nc1ccc(C(F)(F)F)c(F)c1` [Compound 10] it was 30 to 50%; in that of `O=C(O)c1ccccc1C(=O)Nc1ccc(Cl)cc1C(F)(F)F` [Compound 11], 30 to 50%; in that of `O=C(O)c1ccccc1C(=O)Nc1cc(Cl)cc(C(F)(F)F)c1` [Compound 12], 30 to 50%.

Consider `Cc1ccc(NC(=O)c2ccccc2C(=O)O)c(C#N)c1` [Compound 13], for which the activation at 1 µM was 30 to 50%. In the case of `CC(=O)c1ccc(OC(F)F)c(NC(=O)c2ccccc2C(=O)O)c1` [Compound 14] it was 30 to 50%; in that of `NS(=O)(=O)c1ccc(N2C(=O)c3ccccc3C2=O)cc1` [Compound 15], 30 to 50%; in that of `COc1ccc2c(c1)C(=O)N(c1ccc(C(=O)O)cc1)C2=O` [Compound 16], > 50%. In the case of `O=C(O)c1ccccc1C(=O)Nc1ccccc1OC(F)(F)F` [Compound 17] it was 30 to 50%. For `O=C(O)c1ccccc1C(=O)Nc1cccc(C(F)(F)F)c1` [Compound 18], the activation at 1 µM is > 50%. As for `O=C(O)c1ccccc1C(=O)Nc1cccc(OC(F)(F)F)c1` [Compound 19], the figure is > 50%; as for `Cc1ncsc1NC(=O)c1ccccc1C(=O)O` [Compound 22], 30 to 50%. In the case of `CC(C(=O)c1ccc(C#N)cc1)C1OC(=O)c2ccccc21` (centres unmarked) [Compound 23] it was > 50%; in that of `N#Cc1ccc(C(=O)CC2NC(=O)c3ccccc32)cc1` (centres unmarked) [Compound 24], > 50%. `N#Cc1ccc(C(=O)CC2OC(=O)c3ccccc32)cc1` (centres unmarked) [Compound 25]: the activation at 1 µM was 30 to 50%. As for `NS(=O)(=O)c1ccc(N2Cc3ccccc3C2=O)cc1` [Compound 26], the activation at 1 µM lay in the range of 30 to 50%. For `CNS(=O)(=O)c1ccc(N2CCCC2=O)cc1` [Compound 28], the activation at 1 µM was in the range of 30 to 50%. With `O=C(O)c1ccccc1C(=O)Nc1nccs1` [Compound 29], the activation at 1 µM fell in the range of 30 to 50%. As for `CC(=O)c1ccc(F)c(NC(=O)c2ccccc2C(=O)O)c1` [Compound 30], the figure is 30 to 50%; as for `CC(=O)c1cc(NC(=O)c2ccccc2C(=O)O)ccc1F` [Compound 31], 30 to 50%; as for `CC(C)(CO)c1ccc(NC(=O)c2ccccc2C(=O)O)cc1` [Compound 32], 30 to 50%. For `Cc1ccc2c(c1)C(=O)N(c1ccc(C(=O)O)cc1)C2=O` [Compound 33], the activation at 1 µM was 30 to 50%. In the case of `N#Cc1ccc(F)c(NC(=O)c2ccccc2C(=O)O)c1` [Compound 34] it was 30 to 50%; in that of `N#Cc1cccc(NC(=O)c2ccccc2C(=O)O)c1F` [Compound 35], 30 to 50%. Consider `N#Cc1cc(NC(=O)c2ccccc2C(=O)O)ccc1F` [Compound 36], for which the activation at 1 µM lay in the range of 30 to 50%.

Turning to `N#Cc1cc(F)cc(NC(=O)c2ccccc2C(=O)O)c1` [Compound 37], the activation at 1 µM is > 50%. As for `CS(=O)(=O)c1cccc(NC(=O)c2ccccc2C(=O)O)c1` [Compound 38], the activation at 1 µM fell in the range of 30 to 50%.

As to `N#Cc1cccc(C(=O)CC2NC(=O)c3ccccc32)c1` (centres unmarked) [Compound 39], the activation at 1 µM is 30 to 50%.

As to `N#Cc1ccccc1C(=O)CC1OC(=O)c2ccccc21` (centres unmarked) [Compound 40], the activation at 1 µM was in the range of 30 to 50%.

As to `O=C(CC1OC(=O)c2ccccc21)c1ccccc1Cl` (centres unmarked) [Compound 41], the activation at 1 µM is > 50%. As for `O=C(CC1NC(=O)c2ccccc21)c1ccc(C(F)(F)F)cc1` (centres unmarked) [Compound 42], the figure is 30 to 50%; as for `CS(=O)(=O)c1ccc(C(=O)CC2OC(=O)c3ccccc32)cc1` (centres unmarked) [Compound 44], 30 to 50%; as for `CS(=O)(=O)Nc1ccccc1C(=O)Nc1ccc(CC#N)cc1` [Compound 45], 30 to 50%.

For `CS(=O)(=O)Nc1ccccc1C(=O)Nc1ccc(Br)cc1` [Compound 46], the activation at 1 µM was 30 to 50%.

Consider `O=C(O)Cc1ccccc1C(=O)Nc1ccc(CCO)cc1` [Compound 47], for which the activation at 1 µM lay in the range of 30 to 50%. As for `COc1cccc(NC(=O)c2ccccc2C(=O)O)c1` [Compound 48], the figure is 30 to 50%; as for `COC(=O)N(C)Cc1cccc(NC(=O)c2ccccc2C(=O)O)c1` [Compound 49], 30 to 50%; as for `CC(=O)N(C)Cc1cccc(NC(=O)c2ccccc2C(=O)O)c1` [Compound 50], 30 to 50%. As for `NC(=O)Cc1ccc(NC(=O)c2ccccc2C(=O)O)cc1` [Compound 51], the figure is 30 to 50%; as for `CC(O)Cc1ccc(NC(=O)c2ccccc2C(=O)O)cc1` (centres unmarked) [Compound 52], 30 to 50%; as for `O=C(O)c1ccc(S(=O)(=O)Nc2ccccc2C(=O)O)cc1` [Compound 53], 30 to 50%.

Consider `N#Cc1ccc(C(=O)Nc2cnccc2C(=O)O)cc1` [Compound 54], for which the activation at 1 µM was in the range of 30 to 50%. As for `O=C(O)c1ccccc1NC(=O)c1ccccc1C(=O)O` [Compound 55], the figure is > 50%; as for `CN(C)S(=O)(=O)c1ccccc1NC(=O)c1ccc(C#N)cc1` [Compound 56], > 50%. In the case of `O=C(O)c1ccccc1C(=O)Nc1ccccc1CCO` [Compound 57] it was 30 to 50%; in that of `C/C(=N\O)c1cccc(NC(=O)c2ccccc2C(=O)O)c1` [Compound 58], 30 to 50%. As for `CON=C(C)c1cccc(NC(=O)c2ccccc2C(=O)O)c1` [Compound 59], the activation at 1 µM was 30 to 50%. In the case of `N#Cc1ccc(NC(=O)c2ccccc2-c2ccc(C(=O)O)cc2)cc1` [Compound 60] it was > 50%. As for `N#Cc1ccc(NC(=O)c2ccccc2-c2ccccc2C(=O)O)cc1` [Compound 61], the figure is > 50%; as for `O=C(O)c1ccccc1C(=O)Nc1ccc2c(c1)OCCO2` [Compound 64], 30 to 50%; as for `O=C(O)c1ccccc1C(=O)Nc1ccc2c(c1)OCO2` [Compound 65], > 50%. Regarding `Cc1cc(NC(=O)c2ccccc2C(=O)O)ccn1` [Compound 66], the activation at 1 µM lay in the range of 30 to 50%. In the case of `Cc1cnccc1NC(=O)c1ccccc1C(=O)O` [Compound 67], the activation at 1 µM is > 50%. As for `COc1ccccc1NC(=O)c1ccccc1C(=O)O` [Compound 68], the activation at 1 µM is > 50%. Turning to `O=C(O)c1ccccc1C(=O)NCc1cc(C(F)(F)F)cc(C(F)(F)F)c1` [Compound 69], the activation at 1 µM lay in the range of 30 to 50%. With `N#Cc1ccccc1NC(=O)c1ccccc1C(=O)O` [Compound 70], the activation at 1 µM is > 50%. For the molecule `NCc1cccc(NC(=O)c2ccccc2C(=O)O)c1` [Compound 71], the activation at 1 µM was > 50%. In the case of `CS(=O)(=O)NCc1cccc(NC(=O)c2ccccc2C(=O)O)c1` [Compound 72], the activation at 1 µM is > 50%.

Take `O=C(O)c1ccccc1C(=O)Nc1ccc(-c2ncc[nH]2)cc1` [Compound 74]: the activation at 1 µM was 30 to 50%. With `CN(C(N)=O)c1ccccc1C(=O)Nc1ccc(C#N)cc1` [Compound 75], the activation at 1 µM was 30 to 50%.

For `N#Cc1ccc(NC(=O)c2ccccc2NS(=O)(=O)c2ccccc2)cc1` [Compound 77], the activation at 1 µM was > 50%. As for `CN(c1ccccc1C(=O)Nc1ccc(C#N)cc1)S(C)(=O)=O` [Compound 78], the figure is 30 to 50%; as for `COCCS(=O)(=O)Nc1ccccc1C(=O)Nc1ccc(C#N)cc1` [Compound 79], 30 to 50%. As for `O=C(O)c1ccccc1C(=O)Nc1ccon1` [Compound 80], the figure is 30 to 50%; as for `O=C(O)c1ccccc1C(=O)NCCOc1ccccc1` [Compound 81], 30 to 50%. Consider `Cc1cc(NC(=O)c2ccccc2C(=O)O)n[nH]1` [Compound 82], for which the activation at 1 µM is > 50%. As to `O=C(O)c1ccccc1C(=O)Nc1ccccc1OCC(F)(F)F` [Compound 83], the activation at 1 µM is > 50%. As to `CC(CO)c1ccc(NC(=O)c2ccccc2C(=O)O)cc1` (centres unmarked) [Compound 84], the activation at 1 µM is > 50%. Take `Cc1ccc(NC(=O)c2ccccc2C(=O)O)c(F)c1` [Compound 85]: the activation at 1 µM lay in the range of 30 to 50%. In the case of `O=C(O)c1ccccc1C(=O)NCc1ccccc1OC(F)F` [Compound 86], the activation at 1 µM was 30 to 50%. As for `COc1ccc(OC)c(NC(=O)c2ccccc2C(=O)O)c1` [Compound 87], the figure is 30 to 50%. Consider `O=C(O)c1ccc(CNC(=O)c2cccc(F)c2C(=O)O)cc1` [Compound 93], for which the activation at 1 µM fell in the range of 30 to 50%.
